Active and inactive are the calls of the source.
Tests used:
Staphylococcus aureus [1] = test: Antimicrobial activity against clinical strain Staphylococcus aureus assessed as reduction in bacterial growth at 0.195 to 100 ug/ml by serial dilution method; assay type: organism-based; conditions: in vivo, dose 0.195-100 µg/ml
Enterococcus faecalis = test: Antimicrobial activity against Enterococcus faecalis ATCC 29212 assessed as reduction in bacterial growth at 0.195 to 100 ug/ml by serial dilution method; assay type: organism-based; conditions: in vivo, dose 0.195-100 µg/ml
Escherichia coli [2] = test: Antimicrobial activity against Escherichia coli ATCC 25922 assessed as reduction in bacterial growth at 0.195 to 100 ug/ml by serial dilution method; assay type: organism-based; conditions: in vivo, dose 0.195-100 µg/ml
[3] = Toxicity in ip dosed mouse assessed as motor impairment by rotarod test; assay type: organism-based; conditions: in vivo
[4] = Protection index, ratio of TD50 for toxicity in ip dosed mouse to ED50 for anticonvulsant activity in ip dosed mouse; assay type: organism-based; conditions: in vivo, read-out: PI
[5] = Toxicity in mouse assessed as lethality at 20 mg/kg, ip; assay type: organism-based; conditions: in vivo
Escherichia coli [6] = test: Antimicrobial activity against Escherichia coli ATCC 35218 assessed as reduction in bacterial growth at 0.195 to 100 ug/ml by serial dilution method; assay type: organism-based; conditions: in vivo, dose 0.195-100 µg/ml
[7] = Antimicrobial activity against clinical strain Bifidobacterium assessed as reduction in bacterial growth at 0.195 to 100 ug/ml by disk diffusion method; conditions: dose 0.195-100 µg/ml
[8] = Toxicity in mouse assessed as lethality at 30 mg/kg, ip; assay type: organism-based; conditions: in vivo
Staphylococcus aureus [9] = test: Antimicrobial activity against Staphylococcus aureus ATCC 25923 assessed as reduction in bacterial growth at 0.195 to 100 ug/ml by serial dilution method; assay type: organism-based; conditions: in vivo, dose 0.195-100 µg/ml
Clostridioides difficile = test: Antimicrobial activity against clinical strain Clostridium difficile assessed as reduction in bacterial growth at 0.195 to 100 ug/ml by disk diffusion method; assay type: organism-based; conditions: in vivo, dose 0.195-100 µg/ml
Hoylesella loescheii = test: Antimicrobial activity against Prevotella loescheii ATCC 15930 assessed as reduction in bacterial growth at 0.195 to 100 ug/ml by disk diffusion method; assay type: organism-based, DSM 19665 = JCM 12249 = ATCC 15930; conditions: in vivo, dose 0.195-100 µg/ml
Salmonella enterica = test: Antimicrobial activity against Salmonella enterica ATCC 51957 assessed as reduction in bacterial growth at 0.195 to 100 ug/ml by serial dilution method; assay type: organism-based; conditions: in vivo, dose 0.195-100 µg/ml
[10] = Toxicity in mouse assessed as lethality at 50 mg/kg, ip; assay type: organism-based; conditions: in vivo
Mus musculus [11] = test: Anticonvulsant activity in ip dosed mouse assessed as protection against current-induced seizure by maximal electroshock seizure test; assay type: functional
Bacteroides fragilis = test: Antimicrobial activity against Bacteroides fragilis ATCC 25285 assessed as reduction in bacterial growth at 0.195 to 100 ug/ml by disk diffusion method; assay type: organism-based; conditions: in vivo, dose 0.195-100 µg/ml
[12] = target: T1, 5-hydroxytryptamine receptor 1A (Homo sapiens, UniProt P08908); test: Binding affinity to 5-HT1A (unknown origin)
T1 sequence (P08908 whole entry): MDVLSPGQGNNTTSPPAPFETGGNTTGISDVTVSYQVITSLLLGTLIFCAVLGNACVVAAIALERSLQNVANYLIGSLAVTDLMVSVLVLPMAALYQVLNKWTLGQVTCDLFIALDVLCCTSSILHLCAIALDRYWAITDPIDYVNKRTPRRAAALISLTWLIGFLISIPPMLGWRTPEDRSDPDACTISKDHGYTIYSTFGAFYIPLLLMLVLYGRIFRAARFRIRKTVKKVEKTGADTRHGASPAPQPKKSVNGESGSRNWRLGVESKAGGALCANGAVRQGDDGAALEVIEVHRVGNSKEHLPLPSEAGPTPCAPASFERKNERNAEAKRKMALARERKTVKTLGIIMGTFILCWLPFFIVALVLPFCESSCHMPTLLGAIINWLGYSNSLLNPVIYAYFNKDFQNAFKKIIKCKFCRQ

[13] = Genotoxicity in Salmonella typhimurium TA98 assessed as number of revertant at 10 ug by AMES test (reference value: 8 to 8.3); assay type: toxicity, Salmonella enterica subsp. enterica serovar Typhimurium; conditions: in vivo; dose 10 µg
[14] = Antioxidant activity assessed as DPPH radical scavenging activity at 125 to 1000 uM by microplate method; assay type: functional; conditions: dose microM 125-1000
[15] = Genotoxicity in Salmonella typhimurium TA98 assessed as mutagenic index at 75 ug by AMES test; assay type: toxicity, Salmonella enterica subsp. enterica serovar Typhimurium; conditions: in vivo; dose 75 µg
Mus musculus [16] = test: Antiallodynic activity in mouse model of OXA-induced peripheral neuropathy assessed as mean latency time to nocifensive response at 18 mg/kg, ip administered after 7 days of OXA stimulation and measured after 1 hr by cold plate method (reference value: 57.64 +/- 1.267 sec); assay type: functional
Mus musculus [17] = test: Antiallodynic activity in mouse model of OXA-induced peripheral neuropathy assessed as mean paw withdrawal threshold at 18 mg/kg, ip administered after 3 hrs of OXA stimulation and measured after 1 hr by Von-frey method (reference value: 3.144 +/- 0.169 g); assay type: functional
[18] = Genotoxicity in Salmonella typhimurium TA100 assessed as mutagenic index at 75 ug by AMES test; assay type: toxicity, Salmonella enterica subsp. enterica serovar Typhimurium; conditions: in vivo; dose 75 µg
[19] = Genotoxicity in Salmonella typhimurium TA100 assessed as number of revertant at 500 ug by AMES test (reference value: 64.3 to 130.7); assay type: toxicity, Salmonella enterica subsp. enterica serovar Typhimurium; conditions: in vivo; dose 500 µg
[20] = Genotoxicity in Salmonella typhimurium TA100 assessed as number of revertant at 75 ug by AMES test (reference value: 64.3 to 130.7); assay type: toxicity, Salmonella enterica subsp. enterica serovar Typhimurium; conditions: in vivo; dose 75 µg
[21] = Genotoxicity in Salmonella typhimurium TA100 assessed as mutagenic index at 10 ug by AMES test; assay type: toxicity, Salmonella enterica subsp. enterica serovar Typhimurium; conditions: in vivo; dose 10 µg
[22] = Genotoxicity in Salmonella typhimurium TA100 assessed as mutagenic index at 200 ug by AMES test; assay type: toxicity, Salmonella enterica subsp. enterica serovar Typhimurium; conditions: in vivo; dose 200 µg
[23] = Genotoxicity in Salmonella typhimurium TA98 assessed as mutagenic index at 750 ug by AMES test; assay type: toxicity, Salmonella enterica subsp. enterica serovar Typhimurium; conditions: in vivo; dose 750 µg
[24] = Genotoxicity in Salmonella typhimurium TA98 assessed as number of revertant at 500 ug by AMES test (reference value: 8 to 8.3); assay type: toxicity, Salmonella enterica subsp. enterica serovar Typhimurium; conditions: in vivo; dose 500 µg
[25] = Genotoxicity in Salmonella typhimurium TA98 assessed as number of revertant at 750 ug by AMES test (reference value: 8 to 8.3); assay type: toxicity, Salmonella enterica subsp. enterica serovar Typhimurium; conditions: in vivo; dose 750 µg
[26] = Toxicity in mouse assessed as lethality at 10 mg/kg, ip; assay type: organism-based; conditions: in vivo
[27] = Genotoxicity in Salmonella typhimurium TA100 assessed as number of revertant at 200 ug by AMES test (reference value: 64.3 to 130.7); assay type: toxicity, Salmonella enterica subsp. enterica serovar Typhimurium; conditions: in vivo; dose 200 µg
[28] = Genotoxicity in Salmonella typhimurium TA98 assessed as mutagenic index at 200 ug by AMES test; assay type: toxicity, Salmonella enterica subsp. enterica serovar Typhimurium; conditions: in vivo; dose 200 µg
[29] = target: T2, 5-hydroxytryptamine receptor 1A (Homo sapiens) (UniProt P08908); test: Binding affinity to 5-HT1A (unknown origin) at 10^-5 M; conditions: dose 1.0 10^-5M
T2 sequence (whole entry): T1 sequence (P08908 whole entry)

[30] = Genotoxicity in Salmonella typhimurium TA100 assessed as number of revertant at 10 ug by AMES test (reference value: 64.3 to 130.7); assay type: toxicity, Salmonella enterica subsp. enterica serovar Typhimurium; conditions: in vivo; dose 10 µg
Mus musculus [31] = test: Antiallodynic activity in mouse model of OXA-induced peripheral neuropathy assessed as mean paw withdrawal threshold at 18 mg/kg, ip administered after 7 days of OXA stimulation and measured after 1 hr by Von-frey method (reference value: 3.192 +/- 0.181 g); assay type: functional
[32] = Genotoxicity in Salmonella typhimurium TA100 assessed as number of revertant at 1000 ug by AMES test (reference value: 64.3 to 130.7); assay type: toxicity, Salmonella enterica subsp. enterica serovar Typhimurium; conditions: in vivo; dose 1000 µg
[33] = Genotoxicity in Salmonella typhimurium TA98 assessed as mutagenic index at 500 ug by AMES test; assay type: toxicity, Salmonella enterica subsp. enterica serovar Typhimurium; conditions: in vivo; dose 500 µg
[34] = Genotoxicity in Salmonella typhimurium TA98 assessed as mutagenic index at 10 ug by AMES test; assay type: toxicity, Salmonella enterica subsp. enterica serovar Typhimurium; conditions: in vivo; dose 10 µg
[35] = Genotoxicity in Salmonella typhimurium TA100 assessed as mutagenic index at 500 ug by AMES test; assay type: toxicity, Salmonella enterica subsp. enterica serovar Typhimurium; conditions: in vivo; dose 500 µg
[36] = Genotoxicity in Salmonella typhimurium TA98 assessed as number of revertant at 75 ug by AMES test (reference value: 8 to 8.3); assay type: toxicity, Salmonella enterica subsp. enterica serovar Typhimurium; conditions: in vivo; dose 75 µg
[37] = Genotoxicity in Salmonella typhimurium TA98 assessed as number of revertant at 200 ug by AMES test (reference value: 8 to 8.3); assay type: toxicity, Salmonella enterica subsp. enterica serovar Typhimurium; conditions: in vivo; dose 200 µg
[38] = Genotoxicity in Salmonella typhimurium TA100 assessed as mutagenic index at 1000 ug by AMES test; assay type: toxicity, Salmonella enterica subsp. enterica serovar Typhimurium; conditions: in vivo; dose 1000 µg
Mus musculus [39] = test: Antiallodynic activity in mouse model of OXA-induced peripheral neuropathy assessed as mean latency time to nocifensive response at 18 mg/kg, ip administered after 3 hrs of OXA stimulation and measured after 1 hr by cold plate method (reference value: 59.76 +/- 0.16 sec); assay type: functional

## Cc1ccc(OCCOCCN[C@H](C)CO)c(C)c1
Staphylococcus aureus [1]
  Activity: Non-Toxic
Enterococcus faecalis
  Activity: Non-Toxic
Escherichia coli [2]
  Activity: Non-Toxic
[3]
  TD50: 93.2 mg/kg
[4]
  selectivity ratio: 3.4
[5]
  Activity: Non-Toxic
Escherichia coli [6]
  Activity: Non-Toxic
[7]
  Activity: Non-Toxic
[8]
  Activity: Non-Toxic
Staphylococcus aureus [9]
  Activity: Non-Toxic
Clostridioides difficile
  Activity: Non-Toxic
Hoylesella loescheii
  Activity: Non-Toxic
Salmonella enterica
  Activity: Non-Toxic
[10]
  Activity: Non-Toxic
Mus musculus [11]
  ED50: 27.4 mg/kg
Bacteroides fragilis
  Activity: Non-Toxic
[12]
  Ki: 4.8 µM

## Cc1cc(C)c(C)c(OCCCN2CCC(O)CC2)c1
Staphylococcus aureus [1]
  Activity: Non-Toxic
Enterococcus faecalis
  Activity: Non-Toxic
Escherichia coli [2]
  Activity: Non-Toxic
[13]
  Activity: 12
[3]
  TD50: 63.4 mg/kg
[14]
  Activity: inactive
[4]
  selectivity ratio: 3.58
[15]
  Activity_index: 1.8
Mus musculus [16]
  Time: 8.833 s
Mus musculus [17]
  Activity: 1.921 g
Escherichia coli [6]
  Activity: Non-Toxic
[18]
  Activity_index: 0.8
[7]
  Activity: Non-Toxic
[19]
  Activity: 944
[20]
  Activity: 52.3
[21]
  Activity_index: 1
[22]
  Activity_index: 0.7
[23]
  Activity_index: 43.7
[24]
  Activity: 6.7
[25]
  Activity: 364.3
[26]
  Activity: Non-Toxic
Staphylococcus aureus [9]
  Activity: Non-Toxic
Clostridioides difficile
  Activity: Non-Toxic
Hoylesella loescheii
  Activity: Non-Toxic
Salmonella enterica
  Activity: Non-Toxic
[27]
  Activity: 42
[28]
  Activity_index: 1.3
[29]
  Activity: inactive
[30]
  Activity: 66
Mus musculus [31]
  Activity: 2.027 g
[32]
  Activity: 1190
Mus musculus [11]
  ED50: 17.7 mg/kg
[33]
  Activity_index: 0.8
[34]
  Activity_index: 1.4
[35]
  Activity_index: 14.7
[36]
  Activity: 15.3
Bacteroides fragilis
  Activity: Non-Toxic
[37]
  Activity: 11
[38]
  Activity_index: 18.5
Mus musculus [39]
  Time: 15.167 s
